Measured values published in patent US9708368B2, “Linear peptide antibiotics” (priority 2012, dated 2017).
In brackets after ≈: the same amount, converted by molar mass. Square brackets hold non-standard residues; d marks the D form. Peptide text beside a SMILES is read from it. * marks the point of attachment. boroAla((+)-pinanediol) = C[C@H](N*)B1O[C@@H]2C[C@@H]3C[C@@H](C3(C)C)[C@]2(C)O1; Biphenylcarbonyl(4'-Bu) = CCCCc1ccc(-c2ccc(C(=O)*)cc2)cc1; X1 = C[C@H](N*)B1OC2C[C@@H]3C[C@@H](C3(C)C)[C@]2(C)O1; Pro(4S-NH2) = N[C@@H]1CN[C@H](C(=O)O)C1; Benzoyl(2,3-diOH) = O=C(c1cccc(O)c1O)*; Dopa = N[C@@H](Cc1ccc(O)c(O)c1)C(=O)O; NMeT = CN[C@H](C(=O)O)[C@@H](C)O; Decanoyl = CCCCCCCCCC(=O)*; boroAla = C[C@H](N*)B(O)O; Aze = O=C(O)[C@@H]1CCN1; Dab = NCC[C@H](N)C(=O)O; Abu = CC[C@H](N)C(=O)O; Dap = NC[C@H](N)C(=O)O; βAla = NCCC(=O)O

Experiments:
[1] = tested on: methicillin resistant Staphylococcus aureus (MRSA) strain USA300 (NRS384); conditions: Method B, 35° C., 22 hours
S. aureus SPase = S. aureus SPase (Staphylococcus aureus, UniProt P0A070); experiment: biochemical
E. coli SPase = E. coli SPase (Escherichia coli, UniProt P00803); experiment: Biochemical SPase activity assay (fluorogenic peptide substrate), E. coli enzyme
[2] = tested on: Escherichia coli strain MC4100 IMP-4213, which harbors an LptD mutation; conditions: Method B; E. coli MC4100 IMP-4213 (LptD mutation); 35° C., 22 hours
Procedure, shortened: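 Two-fold serial dilutions of compound inoculated at final OD600 0.0005, incubated static at 35 °C for 22 h, and growth read visually.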

Row | SMILES | MIC (μg/mL) S. aureus [1] | IC50 (S. aureus SPase) | IC50 (E. coli SPase) | MIC (μg/mL) E. coli [2]
1 | CCCCc1ccc(-c2ccc(C(=O)N3C[C@@H](N)C[C@H]3C(=O)N3CCC[C@H]3C(=O)N[C@@H](C)C(=O)N[C@@H](CCCCN)C(=O)N[C@@H](C)B3OC4C[C@@H]5C[C@@H](C5(C)C)[C@]4(C)O3)cc2)cc1 (stereo partly drawn) [Compound 181] ({Biphenylcarbonyl(4'-Bu)}-[Pro(4S-NH2)]PAK-X1) | 0.4 µg/mL (≈ 0.461 µM) | 0.018 µM | 0.0054 µM | 0.5 µg/mL (≈ 0.576 µM)
2 | CCCCc1ccc(-c2ccc(C(=O)N[C@@H](CCN)C(=O)N[C@@H](CCN)C(=O)N[C@@H](C)C(=O)N[C@@H](CC)C(=O)N[C@@H](C)B3OC4C[C@@H]5C[C@@H](C5(C)C)[C@]4(C)O3)cc2)cc1 (stereo partly shown) [Compound 182] ({Biphenylcarbonyl(4'-Bu)}-[Dab][Dab]A[Abu]-X1) | 4 µg/mL (≈ 4.9 µM) | 1.1 µM | 0.035 µM | 0.71 µg/mL (≈ 0.87 µM)
3 | CCCCc1ccc(-c2ccc(C(=O)N[C@@H](CCN)C(=O)N3CC[C@H]3C(=O)N[C@@H](C)C(=O)N[C@@H](CCCCN)C(=O)N[C@@H](C)B3O[C@@H]4C[C@@H]5C[C@@H](C5(C)C)[C@]4(C)O3)cc2)cc1 [Compound 183] ({Biphenylcarbonyl(4'-Bu)}-[Dab][Aze]AK-{boroAla((+)-pinanediol)}) | 1 µg/mL (≈ 1.19 µM) | 0.61 µM | 0.02 µM | 1 µg/mL (≈ 1.19 µM)
4 | CCCCc1ccc(-c2ccc(C(=O)N[C@@H](CN)C(=O)N[C@@H](CCCCN)C(=O)N[C@@H](C)C(=O)N[C@@H](CCCCN)C(=O)N[C@@H](C)B3O[C@@H]4C[C@@H]5C[C@@H](C5(C)C)[C@]4(C)O3)cc2)cc1 [Compound 184] ({Biphenylcarbonyl(4'-Bu)}-[Dap]KAK-{boroAla((+)-pinanediol)}) | 0.25 µg/mL (≈ 0.286 µM) | 0.3 µM | 0.0059 µM | 0.13 µg/mL (≈ 0.149 µM)
5 | CCCCc1ccc(-c2ccc(C(=O)N[C@@H](CCN)C(=O)N[C@@H](CCN)C(=O)N[C@@H](C)C(=O)N[C@@H](CO)C(=O)N[C@@H](C)B3O[C@@H]4C[C@@H]5C[C@@H](C5(C)C)[C@]4(C)O3)cc2)cc1 [Compound 185] ({Biphenylcarbonyl(4'-Bu)}-[Dab][Dab]AS-{boroAla((+)-pinanediol)}) | 4 µg/mL (≈ 4.89 µM) | 0.58 µM | 0.041 µM | 0.71 µg/mL (≈ 0.868 µM)
6 | CCCCc1ccc(-c2ccc(C(=O)N[C@@H](CN)C(=O)N[C@@H](CCCCN)C(=O)N[C@@H](C)C(=O)N[C@@H](CCCCN)C(=O)N[C@@H](C)B(O)O)cc2)cc1 [Compound 186] ({Biphenylcarbonyl(4'-Bu)}-[Dap]KAK-boroAla) | 0.13 µg/mL (≈ 0.176 µM) | 0.37 µM | 0.0069 µM | 0.13 µg/mL (≈ 0.176 µM)
7 | CCCCc1ccc(-c2ccc(C(=O)N[C@@H](CCN)C(=O)N[C@H](C(=O)N[C@@H](C)C(=O)N[C@@H](CCCCN)C(=O)N[C@@H](C)B3O[C@@H]4C[C@@H]5C[C@@H](C5(C)C)[C@]4(C)O3)[C@@H](C)O)cc2)cc1 [Compound 187] ({Biphenylcarbonyl(4'-Bu)}-[Dab]TAK-{boroAla((+)-pinanediol)}) | 8 µg/mL (≈ 9.3 µM) | 2.1 µM | 0.17 µM | 2.8 µg/mL (≈ 3.26 µM)
8 | CCCCc1ccc(-c2ccc(C(=O)N[C@@H](CCN)C(=O)N[C@@H](Cc3ccc(O)c(O)c3)C(=O)N[C@@H](C)C(=O)N[C@@H](CCCCN)C(=O)N[C@@H](C)B3O[C@@H]4C[C@@H]5C[C@@H](C5(C)C)[C@]4(C)O3)cc2)cc1 [Compound 188] ({Biphenylcarbonyl(4'-Bu)}-[Dab][Dopa]AK-{boroAla((+)-pinanediol)}) | 16 µg/mL (≈ 17.1 µM) | 2.9 µM | 0.12 µM | 8 µg/mL (≈ 8.53 µM)
9 | CCCCc1ccc(-c2ccc(C(=O)N[C@@H](CCN)C(=O)N[C@@H](Cc3ccc(O)c(O)c3)C(=O)N[C@@H](C)C(=O)N[C@@H](Cc3ccc(O)c(O)c3)C(=O)N[C@@H](C)B3OC4C[C@@H]5C[C@@H](C5(C)C)[C@]4(C)O3)cc2)cc1 (stereo partly shown) [Compound 189] ({Biphenylcarbonyl(4'-Bu)}-[Dab][Dopa]A[Dopa]-X1) | >64 µg/mL | 7.7 µM | 0.43 µM | 64 µg/mL (≈ 64.7 µM)
10 | CCCCc1ccc(-c2ccc(C(=O)N[C@@H](CCN)C(=O)N[C@@H](CCN)C(=O)N[C@@H](C)C(=O)N[C@@H](CCCCNC(=O)c3cccc(O)c3O)C(=O)N[C@@H](C)B3OC4C[C@@H]5C[C@@H](C5(C)C)[C@]4(C)O3)cc2)cc1 (stereo partly shown) [Compound 190] ({Biphenylcarbonyl(4'-Bu)}-[Dab][Dab]AK(Benzoyl(2,3-diOH))-X1) | 64 µg/mL (≈ 64.3 µM) | 64 µM | 1.3 µM | >64 µg/mL
11 | CCCCc1ccc(-c2ccc(C(=O)N[C@@H](CCCCN)C(=O)N[C@@H](C)C(=O)N[C@@H](CC(C)C)C(=O)N[C@@H](C)B(O)O)cc2)cc1 [Compound 191] | 20 µg/mL (≈ 31.4 µM) | 50 µM | 38 µM | 16 µg/mL (≈ 25.1 µM)
12 | CCCCc1ccc(-c2ccc(C(=O)NCCC(=O)N[C@@H](CCCCN)C(=O)N(C)[C@H](C(=O)N[C@@H](C)C(=O)N[C@@H](CC(N)=O)C(=O)N[C@@H](C)B3OC4C[C@@H]5C[C@@H](C5(C)C)[C@]4(C)O3)[C@@H](C)O)cc2)cc1 (stereo partly shown) [Compound 192] ({Biphenylcarbonyl(4'-Bu)-βAla}-K[NMeT]AN-X1) | 0.59 µg/mL (≈ 0.615 µM) | 0.012 µM | 0.027 µM | 16 µg/mL (≈ 16.7 µM)
13 | CCCCc1ccc(-c2ccc(C(=O)NCCC(=O)N[C@@H](CCCCN)C(=O)N[C@H](C(=O)N[C@@H](C)C(=O)N[C@@H](CCCCN)C(=O)N[C@@H](C)B3OC4C[C@@H]5C[C@@H](C5(C)C)[C@]4(C)O3)[C@@H](C)O)cc2)cc1 (stereo partly shown) [Compound 193] ({Biphenylcarbonyl(4'-Bu)-βAla}-KTAK-X1) | 0.16 µg/mL (≈ 0.167 µM) | 0.003 µM | 0.015 µM | 5 µg/mL (≈ 5.21 µM)
14 | CCCCc1ccc(-c2ccc(C(=O)NCCC(=O)N[C@@H](CCCCN)C(=O)N[C@H](C(=O)N[C@@H](C)C(=O)N[C@H](C(=O)N[C@@H](C)B3O[C@@H]4C[C@@H]5C[C@@H](C5(C)C)[C@]4(C)O3)C(C)C)[C@@H](C)O)cc2)cc1 [Compound 194] ({Biphenylcarbonyl(4'-Bu)-βAla}-KTAV-{boroAla((+)-pinanediol)}) | 0.71 µg/mL (≈ 0.763 µM) | 0.0047 µM | 0.016 µM | 6.3 µg/mL (≈ 6.77 µM)
15 | CCCCc1ccc(-c2ccc(C(=O)NCCC(=O)N[C@@H](CCCCN)C(=O)N[C@H](C(=O)N[C@@H](C)C(=O)N[C@@H](CCC(=O)O)C(=O)N[C@@H](C)B3OC4C[C@@H]5C[C@@H](C5(C)C)[C@]4(C)O3)[C@@H](C)O)cc2)cc1 (stereo partly shown) [Compound 195] ({Biphenylcarbonyl(4'-Bu)-βAla}-KTAE-X1) | 1.2 µg/mL (≈ 1.25 µM) | 0.0026 µM | 0.019 µM | 32 µg/mL (≈ 33.3 µM)
16 | CCCCc1ccc(-c2ccc(C(=O)NCCC(=O)N[C@@H](CCCCN)C(=O)N[C@H](C(=O)N[C@@H](C)C(=O)N[C@@H](Cc3c[nH]cn3)C(=O)N[C@@H](C)B3OC4C[C@@H]5C[C@@H](C5(C)C)[C@]4(C)O3)[C@@H](C)O)cc2)cc1 (stereo partly shown) [Compound 196] ({Biphenylcarbonyl(4'-Bu)-βAla}-KTAH-X1) | 0.66 µg/mL (≈ 0.682 µM) | 0.0057 µM | 0.0088 µM | 2.5 µg/mL (≈ 2.58 µM)
17 | CCCCc1ccc(-c2ccc(C(=O)NCCC(=O)N[C@@H](CCCCN)C(=O)N[C@@H](CCCCN)C(=O)N[C@@H](C)C(=O)N[C@@H](CC(N)=O)C(=O)N[C@@H](C)B3OC4C[C@@H]5C[C@@H](C5(C)C)[C@]4(C)O3)cc2)cc1 (stereo partly shown) [Compound 197] ({Biphenylcarbonyl(4'-Bu)-βAla}-KKAN-X1) | 0.3 µg/mL (≈ 0.309 µM) | 0.0062 µM | 0.011 µM | 1 µg/mL (≈ 1.03 µM)
18 | CCCCc1ccc(-c2ccc(C(=O)NCCC(=O)N[C@@H](CCCCN)C(=O)N[C@H](C(=O)N[C@@H](C)C(=O)N[C@@H](CC(C)C)C(=O)N[C@@H](C)B3OC4C[C@@H]5C[C@@H](C5(C)C)[C@]4(C)O3)[C@@H](C)O)cc2)cc1 (stereo partly shown) [Compound 198] ({Biphenylcarbonyl(4'-Bu)-βAla}-KTAL-X1) | 0.5 µg/mL (≈ 0.53 µM) | 0.0089 µM | 0.042 µM | 5 µg/mL (≈ 5.3 µM)
19 | CCCCCCCCCC(=O)NCCC(=O)N[C@@H](CCCCN)C(=O)N[C@H](C(=O)N[C@@H](C)C(=O)N[C@@H](CC(N)=O)C(=O)N[C@@H](C)B1OC2C[C@@H]3C[C@@H](C3(C)C)[C@]2(C)O1)[C@@H](C)O (stereo partly shown) [Compound 199] ({Decanoyl-βAla}-KTAN-X1) | 7 µg/mL (≈ 8.11 µM) | 0.0014 µM | 0.0045 µM | >64 µg/mL
